Results published in patent EP0406760B1, “Plant growth regulating composition” (SUMITOMO CHEMICAL COMPANY, LIMITED, priority 1989, dated 1991).

How the values were obtained:
scopolamine production = assay: Promoting effect on scopolamine production in hairy root culture; type: cell-based, Duboisia leichhardtii; conditions: per culture (50 ml), 28 days after addition
Method: Hairy root of Duboisia leichhardtii are known to produce scopolamine once vegetative parts were infected with Agrobacterium rhizogenes (Plant Science, 59, 191 - 201 (1989)). One hairy root of Duboisia (var.: DL47-1) (wet content, 100 mg) was inoculated in a liquid HF-3 medium (50 ml) and subjected to rotation-culture with a speed of 85 rotations/min at 25°C in the dark place. After twenty-one days, 1000-fold dilution of a dimethylsulfoxide solution of Compound (I) was added to the culture medium to make its final concentration constant. Twenty-eight days thereafter, scopolamine in the hairy roots and the medium was respectively extracted and its amount was measured on a high performance liquid chromatography (HPLC).

wheat = assay: Inhibitory effect on lignin production in wheat and softening of wheat culm; type: in vivo, Wheat (var.: Nohrin No. 61); parameters: key: -: unchanged; +++: prominently softened; conditions: wettable powder applied to the soil, hardness of culms determined manually versus untreated
Description: Wheat seeds (var.: Nohrin No. 61) were sowed in small pots (6 seeds/pot) and cultivated in a greenhouse for about one month. When differentiation of culm was recognized, a designated amount of the compound in the form of a wettable powder according to Formulation Example 2 was applied to the soil, and cultivation was continued until blooming. Hardness of wheat culms in contrast to those of untreated was manually determined and evaluated into four indices ranging from (-: unchanged) to (+++: prominently softened).

[1] = system: chlorogenic acid production; assay: Inhibitory effect on chlorogenic acid production in sunflower; type: in vivo, Sunflowers (var.: Russian Sunflower); conditions: 1000 ppm wettable powder sprayed over the flowers; seed endosperm, HPLC; non-treated 3.4
Method: Sunflowers (var.: Russian Sunflower) were grown in a greenhouse for two weeks and transplanted in Wagner's pots (1/5000 are) and cultivated for 2 months outdoors. When 5 to 10 days elapsed after blooming, a designated amount of the compound in the form of a wettable powder according to Formulation Example 2 was sprayed over the flowers, from which seeds were harvested. Endosperm of the seeds were crushed and subjected to boiling-extraction with ethanol and filtration. The filtrate was diluted with 0.05 M aqueous H₃PO₄ and further filtered. The amount of chlorogenic acid was quantitatively analysed by HPLC (column: Nucleosil C18 (8 mm x 25 cm); eluent: methanol : 0.05 M H₃PO₄ (35 : 75)).

antocyanin production = assay: Inhibitory effect on antocyanin production in red cabbage seedlings in water culture; type: in vivo, red cabbase (var.: Ruby Ball); conditions: 5 days at 25°C under 8000 luxes, in contrast to the non-treated plot
Method: Water culture (10 ml) containing the compound (I) was charged in a reaction vessel, and on adsorbed cotton laid down therein 15 seeds of red cabbase (var.: Ruby Ball) were sowed and cultivated for 5 days at 25°C under 8000 luxes. The shoot of the […] cabbage was cut and antocyanin was extracted with 1N hydrochloric acid (5 ml). The amount of antocyanin thus extracted was calculated by meauring an absorption at 535 nm on a spectrophotometer. The concentration of the compound (I) which inhibits 50 % the antocyanin production was calculated in contrast to the non-treated plot. Still, neither abnormality in the vegetative part nor suppression of growth of the test plant due to Compound (I) could be observed.

morningglory = assay: Inhibitory effect on antocyanin production in morningglory (soil or foliar treatment); type: in vivo, morningglory (var.: Scarlet Ohara); conditions: soil and foliar spray treatments
Method: Seeds of morningglory (var.: Scarlet Ohara) was sowed in small pots (diameter, 8 cm) and cultivated in a greenhouse. At the time of development of cotyledons (9 days after sowing), short-day treatment was performed for 1 week to induce flowering. Five days prior to flowering (length of buds being about 1 to 2 cm), a designated amount of the compound (I) was applied to the soil or sprayed to the foliage of the plant. Cultivation was continued, and color of petals was visually observed in contrast to the non-treated plot and evaluated into five indices ranging from (-: no influence) to (++++: completely whitened).

`Cc1c(F)cccc1NC(=N)C(=O)O` [Compound No. 1, N-(3-fluoro-2-methylphenyl)amidinoformic acid] was tested, and the “Amount of scopolamine (mg) Medium” value (scopolamine production; final concentration 0.1 mg/l) was 2.7 mg, the “Amount of scopolamine (mg) Root” value (scopolamine production; final concentration 0.1 mg/l) was 2.1 mg and the “Amount of scopolamine (mg) Total” value (scopolamine production; final concentration 0.1 mg/l) was 4.8 mg. For the same compound, the “Amount of scopolamine (mg) Medium” value (scopolamine production; final concentration 1.0 mg/l) was 3.4 mg, the “Amount of scopolamine (mg) Root” value (scopolamine production; final concentration 1.0 mg/l) was 2.4 mg and the “Amount of scopolamine (mg) Total” value (scopolamine production; final concentration 1.0 mg/l) was 5.8 mg. For the same compound, the Softening index (wheat; 4 mg/pot) was “+++”, the “Content of chlorogenic acid” value [1] was 1.3 µg/mg fr.wt and the “Concentration of 50 % inhibition of antocyanin production” value (antocyanin production) was 0.04 ppm.

`Cc1c(Cl)cccc1NC(=N)C(=O)O` [Compound No. 3, N-(3-chloro-2-methylphenyl)amidinoformic acid] was tested, and the Softening index (wheat; 2 mg/pot) was “+++”, the “Content of chlorogenic acid” value [1] was 1.0 µg/mg fr.wt and the “Concentration of 50 % inhibition of antocyanin production” value (antocyanin production) was 0.02 ppm.

`Cc1c(Cl)cccc1NC(=N)C(=O)[O-].[Na+]` [Compound No. 30, sodium salt of N-(3-chloro-2-methylphenyl)amidinoformic acid] was tested, and the “Concentration of 50 % inhibition of antocyanin production” value (antocyanin production) was 0.05 ppm.

For `Cc1ccc(Cl)cc1NC(=N)C(=O)O` [Compound No. 4, N-(5-chloro-2-methylphenyl)amidinoformic acid], the “Concentration of 50 % inhibition of antocyanin production” value (antocyanin production) was 0.1 ppm.

`Cc1c(Cl)cccc1NC(=N)C(=O)[O-].[K+]` [Compound No. 31, potassium salt of N-(3-chloro-2-methylphenyl)amidinoformic acid] was tested, and the “Concentration of 50 % inhibition of antocyanin production” value (antocyanin production) was 0.05 ppm.

For `CCOC(=O)C(=N)Nc1cccc(F)c1C` [Compound No. 26, ethyl N-(3-fluoro-2-methylphenyl)amidinoformate], the “Concentration of 50 % inhibition of antocyanin production” value (antocyanin production) was 0.06 ppm.

For `Cc1cc(F)ccc1NC(=N)C(=O)O` [Compound No. 5, N-(4-fluoro-2-methylphenyl)amidinoformic acid], the “Concentration of 50 % inhibition of antocyanin production” value (antocyanin production) was 0.1 ppm.

In the case of `NOC(Cc1ccccc1)C(=O)O` (stereo not shown) [AOPP, 2-aminoxy-3-phenylpropionic acid, reference compound], the “phytotoxicity / adverse effect in the treated plants” value (morningglory) is reported as “severe phytotoxicity (withering of leaves)” and the “Concentration of 50 % inhibition of antocyanin production” value (antocyanin production) is reported as 4 ppm.
